Test results taken from article PMC8843160 (Drug Delivery, 2022).
Converted amounts (≈) assume the structure as drawn. Read-outs that look alike come from different tables or passages of the source.

Tests used:
[1] = Equilibrium solubility experiments; type: physicochemical
Procedure: The obtained complexes were vibrated by ultrasonic for 10 min then continuously shaken in a water bath at 32 °C until equilibrium.
(§1) The samples were determined by an LC-20A HPLC system (SHIMADZU, Kyoto, Japan). The separation was achieved on an InertSustain C18 column (4.6 mm × 250 mm, 5 µm, SHIMADZU, Kyoto, Japan) with the flow rate keeping at 1.0 mL/min, the column temperature maintaining at 40 °C and mobile phase consisting of methanol:water (25:75, v/v) with 0.4% phosphoric acid in water. Injection volume for each run was 50 μL, and detection wavelength was 254 nm.

[2] = In vitro skin permeation, Franz diffusion cells; type: in vitro ADME, porcine; conditions: donor saturated solution in isopropyl myristate; for Q24h, the cumulative amount of drug permeated per unit area at 24 h / Tlag / Jss, the steady-state flux: porcine ear skin, receptor PBS pH 7.4, 32 °C; for Tlag: linear portion of permeation curve extrapolated to the abscissa; for Jss, the steady-state flux: slope of the linear portion of the plots
From the text: According to the description in our previous report (Xu et al., [2011]), the porcine ears immediately obtained from the killed pig were supplied by local slaughterhouse (Xiangtan, China). The hair of porcine ears was carefully cut off with animal hair clippers. Then, skin grafting knife (Medical Equipment Factory of Shanghai Medical Instruments Co., Ltd., Shanghai, China) was employed to separate the skin and subcutaneous fat, and the skin of thickness in range of 0.6 ± 0.1 mm was obtained. The skin was kept frozen at −20 °C no more than 2 weeks.
Two-chamber Franz diffusion cells (receiver volume of 6.5 mL, effective diffusion area of 2.8 cm^2) were used for the in vitro transdermal experiments. The prepared skin was placed between the cell halves with the SC facing the donor cell. The receptor compartment was filled with phosphate buffered saline (pH 7.4), which was put in a water bath at 32 ± 0.5 °C and stirred with a magnetic bar at 300 rpm. The saturated solution of DCN and its ion-pair compounds in isopropyl myristate was filled in the donor cell, and a glass sheet was employed to cover the supply chamber during the in vitro permeation experiments. Since the experiment started, 1.0 mL sample was withdrawn from the receptor compartment at predetermined time interval 2, 4, 6, 8, 10, 12, 14, and 24 h. Subsequently, the equal volume of fresh PBS was replenished. These investigations were performed with different individual skin at least in triplicate.
as §1

[3] = Apparent distribution coefficient (Log P), shake-flask method; type: physicochemical; conditions: n-octanol/distilled water, 48 h, 32 °C
Procedure: as §1

[4] = aqueous buffer, thermodynamic from solid, PBS pH 7.4, 32 °C, read-out: Equilibrium solubility PBS (pH 7.4)
[5] = thermodynamic from solid, isopropyl myristate, 32 °C, read-out: Equilibrium solubility IPM
[6] = thermodynamic from solid, water, 32 °C, read-out: Equilibrium solubility Water

Structure (SMILES)	Q24h, the cumulative amount of drug permeated per unit area at 24 h [2]	Tlag [2]	Jss, the steady-state flux [2]	other results
CC(=O)Oc1cccc2c1C(=O)c1c(OC(C)=O)cc(C(=O)O)cc1C2=O [DCN, Diacerein, reference compound]	1.83 ± 0.22 µg/cm^2	2.68 ± 0.78 h	0.06 ± 0.01 µg/cm^2⋅h^–1	solubility thermodynamic at 48 h [1, 4]: 1442 ± 5.58 µg/mL (≈ 3910 µM); solubility thermodynamic at 48 h [1, 5]: 83.6 ± 18.1 µg/mL (≈ 227 µM); solubility thermodynamic at 48 h [1, 6]: 8.29 ± 0.27 µg/mL (≈ 22.5 µM); solubility thermodynamic at 48 h ([1]; water, 32 °C, read-out: Equilibrium solubility Water): ≤ 10 µg/mL
CC(=O)Oc1cccc2c1C(=O)c1c(OC(C)=O)cc(C(=O)O)cc1C2=O.CCNCC [DCN-Dea]	2.82 ± 0.49 µg/cm^2	4.12 ± 1.14 h	0.10 ± 0.01 µg/cm^2⋅h^–1	
CC(=O)Oc1cccc2c1C(=O)c1c(OC(C)=O)cc(C(=O)O)cc1C2=O.OCCNCCO [DCN-Deta]	4.03 ± 0.71 µg/cm^2	2.16 ± 0.55 h	0.11 ± 0.02 µg/cm^2⋅h^–1	
CC(=O)Oc1cccc2c1C(=O)c1c(OC(C)=O)cc(C(=O)O)cc1C2=O.CCCCCCN [DCN-N6]	3.86 ± 0.21 µg/cm^2	1.52 ± 0.36 h	0.10 ± 0.02 µg/cm^2⋅h^–1	
CC(=O)Oc1cccc2c1C(=O)c1c(OC(C)=O)cc(C(=O)O)cc1C2=O.CCCCCCCCN [DCN-N8]	4.30 ± 0.63 µg/cm^2	2.15 ± 0.22 h	0.14 ± 0.03 µg/cm^2⋅h^–1	
CC(=O)Oc1cccc2c1C(=O)c1c(OC(C)=O)cc(C(=O)O)cc1C2=O.CCCCCCCCCCN [DCN-N10]	6.41 ± 0.23 µg/cm^2	1.38 ± 0.14 h	0.20 ± 0.03 µg/cm^2⋅h^–1	
CC(=O)Oc1cccc2c1C(=O)c1c(OC(C)=O)cc(C(=O)O)cc1C2=O.CCCCCCCCCCCCN [DCN-N12]		2.50 ± 0.18 h	0.34 ± 0.02 µg/cm^2⋅h^–1	
CC(=O)Oc1cccc2c1C(=O)c1c(OC(C)=O)cc(C(=O)O)cc1C2=O.CCCCCCCCCCCCCCN [DCN-N14]	7.03 ± 1.56 µg/cm^2	1.31 ± 0.11 h	0.24 ± 0.05 µg/cm^2⋅h^–1	
CC(=O)Oc1cccc2c1C(=O)c1c(OC(C)=O)cc(C(=O)O)cc1C2=O.CCCCCCCCCCCCCCCCN [DCN-N16]	6.44 ± 0.36 µg/cm^2	1.28 ± 0.23 h	0.22 ± 0.01 µg/cm^2⋅h^–1	
CC(=O)Oc1cccc2c1C(=O)c1c(OC(C)=O)cc(C(=O)O)cc1C2=O.CCCCCCCCCCCCCCCCCCN [DCN-N18]	5.97 ± 1.25 µg/cm^2	1.42 ± 0.52 h	0.20 ± 0.01 µg/cm^2⋅h^–1	
CC(=O)Oc1cccc2c1C(=O)c1c(OC(C)=O)cc(C(=O)O)cc1C2=O.CCN(CC)CC [DCN-Tea]	2.85 ± 0.64 µg/cm^2	3.39 ± 0.55 h	0.11 ± 0.04 µg/cm^2⋅h^–1	solubility thermodynamic at 48 h [1, 4]: 8188 ± 44.4 µg/mL; solubility thermodynamic at 48 h [1, 5]: 1385 ± 13.7 µg/mL; solubility thermodynamic at 48 h [1, 6]: 3233 ± 12.6 µg/mL
CC(=O)Oc1cccc2c1C(=O)c1c(OC(C)=O)cc(C(=O)O)cc1C2=O.OCCN(CCO)CCO [DCN-Teta]	7.89 ± 0.38 µg/cm^2	1.52 ± 0.48 h	0.17 ± 0.05 µg/cm^2⋅h^–1	transdermal permeation rate (comparison in words) ([2]; porcine ear skin in vitro): highest transdermal permeation rate
CC(=O)Oc1cccc2c1C(=O)c1c(OC(C)=O)cc(C(=O)O)cc1C2=O.CCN [DCN-ea]	2.17 ± 0.30 µg/cm^2	1.79 ± 0.66 h	0.08 ± 0.02 µg/cm^2⋅h^–1	Equilibrium solubility PBS (pH 7.4) ([1]; PBS pH 7.4, 32 °C, 48 h): 12155.69 ± 81.21 μg/mL; Equilibrium solubility IPM ([1]; isopropyl myristate, 32 °C, 48 h): 92.80 ± 14.10 µg/mL; Equilibrium solubility Water ([1]; water, 32 °C, 48 h): 6928.52 ± 4.80 µg/mL; Log P [3]: –0.39 ± 0.007
CC(=O)Oc1cccc2c1C(=O)c1c(OC(C)=O)cc(C(=O)O)cc1C2=O.NCCO [DCN-eta]	3.04 ± 0.67 µg/cm^2	1.41 ± 0.56 h	0.09 ± 0.04 µg/cm^2⋅h^–1	solubility thermodynamic at 48 h [1, 4]: 6100 ± 24.7 µg/mL; solubility thermodynamic at 48 h [1, 5]: 121.6 ± 1.2 µg/mL; solubility thermodynamic at 48 h [1, 6]: 3060 ± 35.8 µg/mL
